Assay results as given in patent US5578445A, “In vitro method of evaluating the effects of a substance” (priority 1991, dated 1996).

Columns and labels:
estrogen receptor [1] = biological target: T1, estrogen receptor (Homo sapiens, UniProt P03372); experiment: pS2 secretion, additional set of experiments, ZR 75-1 in 96-well trays, pS2 RIA; conditions: for relative amount of pS2 (no hormone added = 1): zr 75-1 cells, 48 h
T1 sequence (P03372 1-595): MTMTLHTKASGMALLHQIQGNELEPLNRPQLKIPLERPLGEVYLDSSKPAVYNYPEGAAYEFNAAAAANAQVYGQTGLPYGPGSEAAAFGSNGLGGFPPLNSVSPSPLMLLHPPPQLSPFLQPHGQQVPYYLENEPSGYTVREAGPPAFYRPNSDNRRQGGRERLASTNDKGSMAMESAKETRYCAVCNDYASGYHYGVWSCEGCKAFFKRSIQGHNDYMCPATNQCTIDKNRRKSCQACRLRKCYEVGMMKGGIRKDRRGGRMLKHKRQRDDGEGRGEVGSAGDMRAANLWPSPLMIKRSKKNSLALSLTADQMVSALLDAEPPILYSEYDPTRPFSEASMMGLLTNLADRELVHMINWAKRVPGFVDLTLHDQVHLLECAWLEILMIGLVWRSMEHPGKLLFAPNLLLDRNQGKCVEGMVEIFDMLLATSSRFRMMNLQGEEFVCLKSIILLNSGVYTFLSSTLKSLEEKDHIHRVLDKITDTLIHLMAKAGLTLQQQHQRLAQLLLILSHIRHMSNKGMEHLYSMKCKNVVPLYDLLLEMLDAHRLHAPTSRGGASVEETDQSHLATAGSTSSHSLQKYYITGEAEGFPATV
Experimental: (§1) The amount of pS2 secreted into the medium was determined with the aid of a commercial RIA (ELSA pS2 from CIS Bioindustries, Gif-sur-Yvette, France).
(§2) Samples of the cells ZR 75-1 and MCF7, respectively, were distributed into plastic petridishes (suitable for the culturing of mammalian cells).
(§3) Samples of the cells ZR 75-1 ([…]) and MCF7 (2.5×10^4 cells/well), respectively, were distributed in 96-well trays. The cells were distributed in the same medium as used on day 1.
(§4) The wells were washed with 100 μl Coon's medium/well. The first medium was replaced by the second medium (B) without 1% FCS. The following hormone additions were made:
(§5) 48 hours after the hormone addition the number of cells and their morphology were investigated. Medium from each well was transferred to Eppendorf tubes. The possible amount of pS2 in the medium samples was analyzed with the aid of a commercial pS2 RIA (ELSA pS2 ).

estrogen receptor [2] = biological target: T1, estrogen receptor; experiment: pS2 secretion, additional set of experiments, MCF7 in 96-well trays, pS2 RIA; conditions: for relative amount of pS2 (no hormone added = 1): mcf7 cells, 48 h
Experimental: as §1, §2, §3, §4, §5

estrogen receptor [3] = biological target: T1, estrogen receptor; experiment: Cathepsin D secretion into medium, MCF7 in petridishes, Cath D RIA
Experimental: The experiment was conducted using the human breast cancer cell line MCF7 (ATCC HTB 22). The selected cellular response to be analyzed was the amount of expressed cathepsin D (Cath D), the expression of which is regulated by the estrogen receptor. […] The amount of Cath D secreted into the medium was determined with the aid of a commercial RIA (ELSA-CATH-D from CIS Bioindustries, Gif-sur-Yvette, France). The performance of the method is as follows:
A sample of the cell line MCF7 (4×10^5 cells) was distributed into plastic petridishes (suitable for the culturing of mammalian cells). The cells were suspended in the first medium (C).
The petridishes were incubated at 37° C. and 5% CO2 in a temperature and humidity controlled chamber.
The first medium (C) was replaced by the second medium, which consisted of fresh first medium (C). The following hormone additions were made:
The petridishes were incubated in the temperature and humidity controlled chamber under the same conditions as above.
72 hours after the hormone addition visual inspection of the number of cells and their morphology was performed. Medium from each petridish was transferred to Eppendorf tubes and centrifuged 7 minutes at 1000rpm (Eppendorf centrifuge). The amount of Cath D in the medium samples was analyzed with the aid of the commercial Cath D RIA (ELSA-CATH D)

estrogen receptor [4] = biological target: T1, estrogen receptor; experiment: Cathepsin D secretion, additional set of experiments, ZR 75-1 in 96-well trays, Cath D RIA
Experimental: (§6) The amount of Cath D secreted into the medium was determined with the aid of a commercial RIA (ELSA-CATD-D from CIS Bio-industries, Gif-sur-Yvette, France).
as §2
(§7) Samples of the cells ZR 75-1 (4×10^4 cells/well) and MCF7 (2.5×10^4 cells/well), respectively, were distributed in 96-well trays. The cells were distributed in the same medium as used on day 1.
as §4
(§8) 48 hours after the hormone addition the number of cells and their morphology were investigated. Medium from each well was transferred to Eppendorf tubes. The possible amount of Cath D in the medium samples was analyzed with the aid of a commercial Cath D RIA (ELSA-CATH-D).

estrogen receptor [5] = biological target: T1, estrogen receptor; experiment: Cathepsin D secretion, additional set of experiments, MCF7 in 96-well trays, Cath D RIA
Experimental: as §6, §2, §7, §4, §8

MCF7 = experiment: Proliferation, amount of ATP after 6 days, MCF7
[6] = ZR-75-1, 48 h, read-out: relative amount of pS2 (no hormone added = 1)
[7] = MCF7, 48 h, read-out: relative amount of pS2 (no hormone added = 1)
[8] = 10^-8 M LY 117018, presence of 10^-10 M E2

function on pS2 expression (estrogen receptor [1]; ZR 75-1, 10^-8 M LY 117018, presence of 10^-10 M E2): functions as an antagonist
antagonist strength compared with Tamoxifen, pS2 (estrogen receptor [1]; ZR 75-1, presence of 0.1 nM E2): stronger antagonist than Tamoxifen
influence on the pS2 secretion (estrogen receptor [1]; ZR 75-1, substance alone, without E2): do not have an influence
fold induction at 0.001 µM (estrogen receptor [1]; [6]): 0.9
fold induction at 0.01 µM (estrogen receptor [1]; [6]): 0.86
fold induction at 0.1 µM (estrogen receptor [1]; [6]): 0.78
fold induction at 1 µM (estrogen receptor [1]; [6]): 0.75
relative amount of pS2 (no hormone added = 1) (estrogen receptor [1]; 0.001 µM): 1.96
relative amount of pS2 (no hormone added = 1) (estrogen receptor [1]; 0.01 µM): 0.84
relative amount of pS2 (no hormone added = 1) (estrogen receptor [1]; 0.1 µM): 0.91
relative amount of pS2 (no hormone added = 1) (estrogen receptor [1]; 1 µM): 0.83
fold induction at 0.001 µM (estrogen receptor [2]; [7]): 0.89
fold induction at 0.01 µM (estrogen receptor [2]; [7]): 1
fold induction at 0.1 µM (estrogen receptor [2]; [7]): 0.93
fold induction at 1 µM (estrogen receptor [2]; [7]): 1
function on pS2 expression (estrogen receptor [2]; MCF7, 10^-8 M LY 117018, presence of 10^-10 M E2): functions as an antagonist
antagonist strength compared with Tamoxifen, pS2 (estrogen receptor [2]; MCF7, presence of 0.1 nM E2): stronger antagonist than Tamoxifen
influence on the pS2 secretion (estrogen receptor [2]; MCF7, substance alone, without E2): do not have an influence
relative amount of pS2 (no hormone added = 1) (estrogen receptor [2]; 0.001 µM): 2.01
relative amount of pS2 (no hormone added = 1) (estrogen receptor [2]; 0.01 µM): 1.11
relative amount of pS2 (no hormone added = 1) (estrogen receptor [2]; 0.1 µM): 1.19
relative amount of pS2 (no hormone added = 1) (estrogen receptor [2]; 1 µM): 1.18
fold induction at 0.1 µM (estrogen receptor [3]; MCF7, 72 h, read-out: relative amount of Cath D (no hormone added = 1)): 0.88
function on Cath D expression (estrogen receptor [3]; MCF7, 10^-7 M LY 117018, both in the absence and in the presence of 10^-8 M E2): acts as an estrogen antagonist
function on Cath D expression (estrogen receptor [4]; [8]): functions as an antagonist
antagonist strength compared with Tamoxifen, Cath D (estrogen receptor [4]; presence of 0.1 nM E2): stronger antagonist than Tamoxifen
influence on the Cath D secretion (estrogen receptor [4]; substance alone, without E2): do not have an influence
function on Cath D expression (estrogen receptor [5]; [8]): functions as an antagonist
antagonist strength compared with Tamoxifen, Cath D (estrogen receptor [5]; presence of 0.1 nM E2): stronger antagonist than Tamoxifen
influence on the Cath D secretion (estrogen receptor [5]; substance alone, without E2): do not have an influence
Compound: O=C(c1ccc(OCCN2CCCC2)cc1)c1c(-c2ccc(O)cc2)sc2cc(O)ccc12 [LY 117018]
inhibition of the expression of pS2 (estrogen receptor [1]; ZR 75-1, 10 nM LY 117018 and 0.1 nM E2): inhibited down to the same level as in the absence of added hormone
inhibition of the expression of pS2 (estrogen receptor [2]; MCF7, 10 nM LY 117018 and 0.1 nM E2): inhibited down to the same level as in the absence of added hormone
inhibition of the expression of Cath D (estrogen receptor [4]; 10 nM LY 117018 and 0.1 nM E2): inhibited down to same level as in the absence of added hormone
inhibition of the expression of Cath D (estrogen receptor [5]; 10 nM LY 117018 and 0.1 nM E2): inhibited down to same level as in the absence of added hormone
activity at 1 µM (MCF7; Homo sapiens, MCF7, 144 h, read-out: relative amount of ATP (no hormone added = 1), MCF7, + 10^-6 M LY 117018, -E2, 6 days): 27%
activity at 0.1 µM (MCF7; Homo sapiens, MCF7, 144 h, read-out: relative amount of ATP (no hormone added = 1), MCF7, + 10^-7 M LY 117018, -E2, 6 days): 89%
activity at 0.01 µM (MCF7; Homo sapiens, MCF7, 144 h, read-out: relative amount of ATP (no hormone added = 1), MCF7, + 10^-8 M LY 117018, -E2, 6 days): 89%
activity at 0.001 µM (MCF7; Homo sapiens, MCF7, 144 h, read-out: relative amount of ATP (no hormone added = 1), MCF7, + 10^-9 M LY 117018, -E2, 6 days): 85%
inhibition of growth (MCF7; MCF7, 0.1 nM E2 and 10 nM LY 117018): inhibited down to the same level as in the absence of added hormone
function on growth (MCF7; MCF7, 10^-7 M LY 117018, presence of 10^-10 M E2): functions as an antagonist
antagonist strength compared with Tamoxifen, growth (MCF7; MCF7, presence of 0.1 nM E2): stronger antagonist than Tamoxifen
